Test results: ChEMBL document CHEMBL1159174, “Spiroketal glycomimetics: the synthesis of a conformationally restrained Sialyl Lewis X mimic” (Bioorg Med Chem Lett, 1995)

Key:
[1] = biological target: T1, E-selectin (Homo sapiens, UniProt P16581); assay: Affinity of compound to Selectin E was determined
T1 sequence (P16581 whole entry): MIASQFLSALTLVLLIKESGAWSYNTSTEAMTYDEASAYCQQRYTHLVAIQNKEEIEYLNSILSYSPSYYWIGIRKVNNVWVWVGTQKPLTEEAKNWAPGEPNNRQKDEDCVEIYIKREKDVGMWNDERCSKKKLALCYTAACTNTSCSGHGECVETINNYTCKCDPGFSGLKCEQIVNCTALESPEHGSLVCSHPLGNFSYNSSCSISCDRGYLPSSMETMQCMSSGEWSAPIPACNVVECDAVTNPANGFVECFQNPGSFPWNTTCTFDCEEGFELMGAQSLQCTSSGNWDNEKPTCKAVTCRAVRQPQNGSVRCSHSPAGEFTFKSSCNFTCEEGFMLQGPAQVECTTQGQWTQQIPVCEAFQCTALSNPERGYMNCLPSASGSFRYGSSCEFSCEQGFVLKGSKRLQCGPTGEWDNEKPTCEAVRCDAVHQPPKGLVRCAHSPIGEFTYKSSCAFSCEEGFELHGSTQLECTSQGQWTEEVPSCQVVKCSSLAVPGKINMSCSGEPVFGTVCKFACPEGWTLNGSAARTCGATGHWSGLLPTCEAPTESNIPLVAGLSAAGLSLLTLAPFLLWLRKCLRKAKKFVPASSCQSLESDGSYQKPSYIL

[2] = biological target: T1, E-selectin; assay: Ability to inhibit the binding to Selectin E immobilized on SPA beads of radiolabeled HL-60 cell membrane was determined; format: cell membranes
[3] = biological target: T2, E-selectin (Homo sapiens) (UniProt P16581); assay: Ability to inhibit the binding to Selectin E immobilized on SPA beads of radiolabeled HL-60 cell membrane was determined at concentration of 10 mM; format: cell membranes
T2 sequence (whole entry): T1 sequence (P16581 whole entry)

Row | SMILES | Kd [1] [mM] | IC50 [2] [µM] | inhibition [3] [%]
1 | CC(=O)N[C@H]1[C@H]([C@H](O)[C@H](O)CO)O[C@@](O[C@H]2[C@@H](O)[C@@H](CO)O[C@@H](O[C@@H]([C@H](O[C@@H]3O[C@@H](C)[C@@H](O)[C@@H](O)[C@@H]3O)[C@H](C=O)NC(C)=O)[C@H](O)CO)[C@@H]2O)(C(=O)O)C[C@@H]1O [SIALYL LEWIS X] | 1 | 300 | 
2 | CC(=O)NC1C(O)CC(OC2CCO[C@]3(CCC(OC4OC(C)C(O)C(O)C4O)CO3)C2)(C(=O)O)OC1[C@H](O)[C@H](O)CO (stereo partly drawn) |  |  | 35
